Tests used:
[1] = system: HCT116 WT cells; assay: HCT116 WT (parent) cell line proliferation / cell viability (CellTiter-Glo, 6 days); format: cell-based; conditions: Homo sapiens, HCT-116, 144 h, 6 days treatment
Method: (§1) HCT116 Proliferation Activity
(§2) To assess selective anti-proliferative activity of compounds of the invention in cells that have loss expression of MTAP, an HCT-116 isogenic cell line pair was utilized where one cell line was engineered to genetically knockout both MTAP alleles. Cell viability was then assessed in both the parent HCT-116 cell line and the MTAP null cell line after 6 days of treatment with compounds of the present invention. Selective anti-proliferative activity in the MTAP null cell line indicates MTA-cooperative inhibition of PRMT5 and ability to inhibit growth of cancer cells that have loss of MTAP.
(§3) HCT116 MTAP null and WT cells were seeded in 96-well tissue culture plates in RPMI 1640 media+10% fetal bovine serum. Plates were incubated overnight at 37° C. and 5% CO2. Cells were then treated with an 8- or 9-point serial dilution of compound, using a top concentration of 1, or 10 μM, 1:3 serial dilution steps and, a DMSO-only control. Cells were incubated in the presence of drug for 6 days. Effects on cell viability were measured with the CellTiter-Glo® Luminescent Cell Viability Assay (Promega) per manufacturer's recommendation. Assay plates were read on an EnVision™ Multilabel Reader using the Ultra-Sensitive luminescence module. IC50 values were calculated with GraphPad Prism v 5.01 using symmetrical sigmoidal dose-response least squares fit with Hill slope fixed to −1 and top constrain to 100% or GeneData Screener using a 4-parameter logistic model to fit dose response curves.
(§4) Alternatively, compounds could be assayed with a 384 well plate format:
(§5) Compounds were pre-spotted into 384 well plates with a 22-point serial dilution of compound, using a top concentration of 10 or 50 μM, 1:2 serial dilution steps and, a DMSO-only control. HCT116 MTAP null and WT cells were then seeded as above and after 6 days effects on cell viability were measured with the CellTiter-Glo® Luminescent Cell Viability Assay (Promega). Assay plates were read as above and IC50 values were calculated with GeneData Screener using a 4-parameter logistic model to fit dose response curves. The reported IC50 represents the value where the curve transits 50% of control.

[2] = system: HCT116 MTAP null cells; assay: HCT116 MTAP null cell line proliferation / cell viability (CellTiter-Glo, 6 days); format: cell-based; conditions: 144 h; HCT116 MTAP null cells, 6 days treatment, CellTiter-Glo cell viability; read-out: HCT-116 MTAP null IC50
Method: as §1, §2, §3, §4, §5

SMILES	IC50 [1] [µM]	IC50 [2] [µM]
CN(C(=O)c1cc2c(cc1F)nc(N)c1cnn(C)c12)C1COc2cc(C(F)(F)F)cc(F)c21 (racemic) [Example 245, 4-amino-7-fluoro-N-((3R)-4-fluoro-6-(trifluoromethyl)-2,3-dihydro-1-benzofuran-3-yl)-N,1-dimethyl-1H-pyrazolo-[4,3-c]quinoline-8-carboxamide and 4-amino-7-fluoro-N-((3S)-4-fluoro-6-(trifluoromethyl)-2,3-dihydro-1-benzofuran-3-yl)-N,1-dimethyl-1H-pyrazolo[4,3-c]quinoline-8-carboxamide]	0.88	0.019
CN(C(=O)c1cc2c(cc1F)nc(N)c1cnn(C)c12)C1c2ccc(C(F)(F)F)nc2CC1(F)F (racemic) [Example 246, 4-amino-N-((5R)-6,6-difluoro-2-(trifluoromethyl)-6,7-dihydro-5H-cyclopenta[b]-pyridin-5-yl)-7-fluoro-N,1-dimethyl-1H-pyrazolo[4,3-c]-quinoline-8-carboxamide and 4-amino-N-((5S)-6,6-difluoro-2-(trifluoromethyl)-6,7-dihydro-5H-cyclopenta[b]pyridin-5-yl)-7-fluoro-N,1-dimethyl-1H-pyrazolo[4,3-c]quinoline-8-carboxamide]	8.48	0.61
CN(C(=O)c1cc2c(cc1Cl)nc(N)c1cnn(C)c12)C1CCc2nc(C(F)(F)F)ccc21 (racemic) [Example 248, 4-amino-7-chloro-N,1-dimethyl-N-((5R)-2-(trifluoromethyl)-6,7-dihydro-5H-cyclopenta[b]-pyridin-5-yl)-1H-pyrazolo[4,3-c]quinoline-8-carboxamide and 4-amino-7-chloro-N,1-dimethyl-N-((5S)-2-(trifluoromethyl)-6,7-dihydro-5H-cyclopenta[b]-pyridin-5-yl)-1H-pyrazolo[4,3-c]quinoline-8-carboxamide]	0.635	0.018
CN(C(=O)c1cc2c3c(c(N)nc2cc1F)COC3)C1CCOc2cc(C(F)(F)F)ccc21 (racemic) [Example 272, 4-amino-7-fluoro-N-methyl-N-((4R)-7-(trifluoromethyl)-3,4-dihydro-2H-chromen-4-yl)-1,3-dihydrofuro[3,4-c]quinoline-8-carboxamide and 4-amino-7-fluoro-N-methyl-N-((4S)-7-(trifluoromethyl)-3,4-dihydro-2H-chromen-4-yl)-1,3-dihydrofuro[3,4-c]quinoline-8-carboxamide]	5.39	0.206
CN(C(=O)c1ccc2nc(N)c3c(c2c1)COC3)C1CCc2nc(C(F)(F)F)ccc21 (racemic) [Example 444, 4-amino-N-methyl-N-((5R)-2-(trifluoromethyl)-6,7-dihydro-5H-cyclopenta[b]pyridin-5-yl)-1,3-dihydrofuro[3,4-c]quinoline-8-carboxamide and 4-amino-N-methyl-N-((5S)-2-(trifluoromethyl)-6,7-dihydro-5H-cyclopenta[b]pyridin-5-yl)-1,3-dihydrofuro[3,4-c]quinoline-8-carboxamide]	12.1	0.348
CN(C(=O)c1cc2c3c(c(N)nc2cn1)COC3)C1COc2cc(C(F)(F)F)ncc21 (racemic) [Example 454, 4-amino-N-methyl-N-((3R)-6-(trifluoromethyl)-2,3-dihydrofuro[3,2-c]pyridin-3-yl)-1,3-dihydrofuro[3,4-c][1,7]naphthyridine-8-carboxamide and 4-amino-N-methyl-N-((3S)-6-(trifluoromethyl)-2,3-dihydrofuro[3,2-c]pyridin-3-yl)-1,3-dihydrofuro[3,4-c][1,7]naphthyridine-8-carboxamide]	50	3.56
CN(C(=O)c1cc2c3c(c(N)nc2cn1)COC3)C1COc2cc(C(F)(F)F)cc(F)c21 (racemic) [Example 455, 4-amino-N-((3R)-4-fluoro-6-(trifluoromethyl)-2,3-dihydro-1-benzofuran-3-yl)-N-methyl-1,3-dihydrofuro[3,4-c][1,7]naphthyridine-8-carboxamide and 4-amino-N-((3S)-4-fluoro-6-(trifluoromethyl)-2,3-dihydro-1-benzofuran-3-yl)-N-methyl-1,3-dihydrofuro[3,4-c][1,7]naphthyridine-8-carboxamide]	5.62	0.122
CN(C(=O)c1cc2c3c(c(N)nc2cn1)COC3)C1COc2cc(Br)cnc21 (racemic) [Example 458, 4-amino-N-((3R)-6-bromo-2,3-dihydrofuro[3,2-b]pyridin-3-yl)-N-methyl-1,3-dihydrofuro[3,4-c][1,7]naphthyridine-8-carboxamide and 4-amino-N-((3S)-6-bromo-2,3-dihydrofuro[3,2-b]pyridin-3-yl)-N-methyl-1,3-dihydrofuro[3,4-c][1,7]naphthyridine-8-carboxamide]	38.5	5.05
CN(C(=O)c1cc2c3c(c(N)nc2cc1F)COC3)C1COc2cc(OC(F)F)ccc21 (racemic) [Example 459, 4-amino-N-((3R)-6-(difluoromethoxy)-2,3-dihydro-1-benzofuran-3-yl)-7-fluoro-N-methyl-1,3-dihydrofuro[3,4-c]quinoline-8-carboxamide and 4-amino-N-((3S)-6-(difluoromethoxy)-2,3-dihydro-1-benzofuran-3-yl)-7-fluoro-N-methyl-1,3-dihydrofuro[3,4-c]quinoline-8-carboxamide]	5.54	0.091
CN(C(=O)c1cc2c3c(c(N)nc2cc1F)COC3)C1COc2cc(C(F)(F)F)ncc21 (racemic) [Example 460, 4-amino-7-fluoro-N-methyl-N-((3R)-6-(trifluoromethyl)-2,3-dihydrofuro[3,2-c]pyridin-3-yl)-1,3-dihydrofuro[3,4-c]quinoline-8-carboxamide and 4-amino-7-fluoro-N-methyl-N-((3S)-6-(trifluoromethyl)-2,3-dihydrofuro[3,2-c]pyridin-3-yl)-1,3-dihydrofuro[3,4-c]quinoline-8-carboxamide]	10.8	0.162

Now from value to compound:

IC50 [1] [µM]	IC50 [2] [µM]	SMILES
2.46	0.061	CN(C(=O)c1cc2c(cc1F)nc(N)c1cnn(C)c12)C1CCOc2cc(C(F)(F)F)ccc21 (racemic) [Example 290, 4-amino-7-fluoro-N,1-dimethyl-N-((4R)-7-(trifluoromethyl)-3,4-dihydro-2H-chromen-4-yl)-1H-pyrazolo[4,3-c]quinoline-8-carboxamide and 4-amino-7-fluoro-N,1-dimethyl-N-((4S)-7-(trifluoromethyl)-3,4-dihydro-2H-chromen-4-yl)-1H-pyrazolo[4,3-c]quinoline-8-carboxamide]
12.6	0.316	CN(C(=O)c1ccc2nc(N)c3c(c2c1)COC3)C1COc2cc(C(F)(F)F)ncc21 (racemic) [Example 445, 4-amino-N-methyl-N-((3R)-6-(trifluoromethyl)-2,3-dihydrofuro[3,2-c]pyridin-3-yl)-1,3-dihydrofuro[3,4-c]quinoline-8-carboxamide and 4-amino-N-methyl-N-((3S)-6-(trifluoromethyl)-2,3-dihydrofuro[3,2-c]pyridin-3-yl)-1,3-dihydrofuro[3,4-c]quinoline-8-carboxamide]
3.35	0.096	Nc1nc2ccc(C(=O)N(C3CC3)C3COc4cc(C(F)(F)F)ccc43)cc2c2c1COC2 (racemic) [Example 449, 4-amino-N-cyclopropyl-N-((3R)-6-(trifluoromethyl)-2,3-dihydro-1-benzofuran-3-yl)-1,3-dihydrofuro[3,4-c]quinoline-8-carboxamide and 4-amino-N-cyclopropyl-N-((3S)-6-(trifluoromethyl)-2,3-dihydro-1-benzofuran-3-yl)-1,3-dihydrofuro[3,4-c]quinoline-8-carboxamide]
37.8	2.07	CN(C(=O)c1ccc2nc(N)c3c(c2c1)COC3)C1COc2cc(Br)cnc21 (racemic) [Example 450, 4-amino-N-((3R)-6-bromo-2,3-dihydrofuro[3,2-b]pyridin-3-yl)-N-methyl-1,3-dihydrofuro[3,4-c]quinoline-8-carboxamide and 4-amino-N-((3S)-6-bromo-2,3-dihydrofuro[3,2-b]pyridin-3-yl)-N-methyl-1,3-dihydrofuro[3,4-c]quinoline-8-carboxamide]
13.3	0.246	CN(C(=O)c1cc2c3c(c(N)nc2cn1)COC3)C1COc2cc(OC(F)F)ccc21 (racemic) [Example 453, 4-amino-N-((3R)-6-(difluoromethoxy)-2,3-dihydro-1-benzofuran-3-yl)-N-methyl-1,3-dihydrofuro[3,4-c][1,7]naphthyridine-8-carboxamide and 4-amino-N-((3S)-6-(difluoromethoxy)-2,3-dihydro-1-benzofuran-3-yl)-N-methyl-1,3-dihydrofuro[3,4-c][1,7]naphthyridine-8-carboxamide]

Reference: patent US20240124442A1, “TRICYCLIC-AMIDO-BICYCLIC PRMT5 INHIBITORS” (AMGEN INC., priority 2021, published 2024)
